Reference: PubChem BioAssay (NCI)
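A five-concentration, 48-hour dose response in 96-well plates underlies each endpoint, interpolated linearly between surrounding concentrations. The concentration for 50% growth inhibition is given as GI50. Definition used: TGI = concentration required for complete inhibition of growth.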

What was measured:
Assay in all cases: NCI-60 cell line screen, 48 h
[1] = tested on: OVCAR-5 ovarian
[2] = tested on: SF-268 CNS
[3] = tested on: IGROV1 ovarian
[4] = tested on: NCI-H522 lung
[5] = tested on: TK-10 renal
[6] = tested on: SF-539 CNS
[7] = tested on: NCI-H226 lung
[8] = tested on: A498 renal
[9] = tested on: HT29 colon
[10] = tested on: UACC-62 melanoma
[11] = tested on: HL-60(TB) leukemia
[12] = tested on: MOLT-4 leukemia
[13] = tested on: LOX IMVI melanoma
[14] = tested on: KM12 colon
[15] = tested on: UACC-257 melanoma
[16] = tested on: K-562 leukemia
[17] = tested on: MDA-MB-435
[18] = tested on: OVCAR-8 ovarian
[19] = tested on: PC-3 prostate
[20] = tested on: BT-549 breast
[21] = tested on: SN12C renal
[22] = tested on: SR leukemia
[23] = tested on: HOP-92 NSCLC
[24] = tested on: NCI/ADR-RES ovarian
[25] = tested on: SK-MEL-28 melanoma
[26] = tested on: SK-OV-3 ovarian
[27] = tested on: CCRF-CEM leukemia
[28] = tested on: COLO 205 colon
[29] = tested on: RXF 393 renal

Compound: O=C(Nc1ccc(-n2ccc3c(NC(=O)c4ccccc4)nccc32)cc1)c1ccc(N2CCOCC2)c(C(F)(F)F)c1
- TGI [1]: > 76.1 µM
- GI50 [2]: 0.122 µM
- TGI [2]: > 77.1 µM
- GI50 [3]: 0.192 µM
- TGI [3]: > 42.6 µM
- GI50 [4]: 0.363 µM
- TGI [4]: 18.2 µM
- GI50 [5]: 0.449 µM
- TGI [5]: 26.1 µM
- GI50 [6]: 0.0513 µM
- TGI [6]: 6.79 µM
- GI50 [7]: 3.18 µM
- TGI [7]: 59.4 µM
- GI50 [8]: 2.19 µM
- TGI [8]: 26.6 µM
- GI50 [9]: 0.0476 µM
- TGI [9]: 3.71 µM
- GI50 [10]: 0.331 µM
- TGI [10]: 21.7 µM
- GI50 [11]: 1.01 µM
- TGI [11]: > 100 µM
- GI50 [12]: 0.0421 µM
- TGI [12]: > 100 µM
- GI50 [13]: 0.0334 µM
- TGI [13]: 7.06 µM
- GI50 [14]: 0.0707 µM
- TGI [14]: 18 µM
- GI50 [15]: 3.61 µM
- TGI [15]: 55.5 µM
- GI50 [16]: 0.0429 µM
- TGI [16]: > 100 µM
- GI50 [17]: 0.102 µM
- TGI [17]: 41.8 µM
- GI50 [18]: 0.115 µM
- TGI [18]: 56.2 µM
- GI50 [19]: 1.02 µM
- TGI [19]: 52.5 µM
- GI50 [20]: 4.73 µM
- TGI [20]: > 67.9 µM
- GI50 [21]: 3.93 µM
- TGI [21]: > 100 µM
- GI50 [22]: < 0.0189 µM
- TGI [22]: > 100 µM
- GI50 [23]: 1.96 µM
- TGI [23]: 18.1 µM
- GI50 [24]: 0.198 µM
- TGI [24]: 29.9 µM
- GI50 [25]: 0.275 µM
- TGI [25]: > 47.4 µM
- GI50 [26]: 0.509 µM
- TGI [26]: 28.2 µM
- GI50 [27]: 0.44 µM
- TGI [27]: > 100 µM
- GI50 [28]: 0.364 µM
- TGI [28]: 32.4 µM
- GI50 [29]: 0.194 µM
- TGI [29]: 1.48 µM
